Assay: mn = molality of the nth substance listed, in mol/kg
Details: 101.3 kPa, Liquid; for speed of sound: Pulse-echo method

[Co+2].[O-][Cl+3]([O-])([O-])[O-].[O-][Cl+3]([O-])([O-])[O-] [cobalt(II) perchlorate] + CN(C)C=O
Details | mass density, 283.15 K [kg/m3] | mass density, 293.15 K [kg/m3] | mass density, 298.15 K [kg/m3] | mass density, 303.15 K [kg/m3] | mass density, 313.15 K [kg/m3] | mass density, 323.15 K [kg/m3] | mass density, 333.15 K [kg/m3] | speed of sound, 298.15 K [m/s]
m1 = 0.02921 | 964.275 | 954.785 | 950.026 | 945.273 | 935.722 | 926.127 | 916.489 | 1459.6
m1 = 0.03591 | 965.673 | 956.19 | 951.432 | 946.682 | 937.135 | 927.546 | 917.907 | –
m1 = 0.05081 | 968.79 | 959.315 | 954.565 | 949.82 | 940.29 | 930.711 | 921.09 | 1461.4
m1 = 0.05902 | 970.508 | 961.035 | 956.29 | 951.55 | 942.021 | 932.457 | 922.843 | 1462.1
m1 = 0.08863 | 976.733 | 967.283 | 962.549 | 957.809 | 948.308 | 938.77 | 929.181 | 1464.2
m1 = 0.1167 | 982.692 | 973.255 | 968.53 | 963.801 | 954.319 | 944.808 | 935.256 | 1466.5
m1 = 0.1455 | 988.838 | 979.414 | 974.697 | 969.98 | 960.52 | 951.034 | 941.509 | 1468.5
m1 = 0.1735 | 994.845 | 985.454 | 980.747 | 976.035 | 966.596 | 957.13 | 947.626 | 1471
m1 = 0.2007 | 1000.8 | 991.403 | 986.7 | 981.997 | 972.578 | 963.135 | 953.661 | 1472.8
m1 = 0.2305 | 1007.33 | 997.94 | 993.248 | 988.552 | 979.153 | 969.73 | 960.286 | 1475.4
m1 = 0.2574 | 1013.28 | 1003.91 | 999.223 | 994.536 | 985.152 | 975.753 | 966.326 | 1477.5
m1 = 0.284 | 1019.22 | 1009.86 | 1005.18 | 1000.5 | 991.143 | 981.766 | 972.371 | 1479.7

[Cu+2].[O-][Cl+3]([O-])([O-])[O-].[O-][Cl+3]([O-])([O-])[O-] [copper perchlorate] + CN(C)C=O
Details | mass density, 283.15 K [kg/m3] | mass density, 293.15 K [kg/m3] | mass density, 298.15 K [kg/m3] | mass density, 303.15 K [kg/m3] | mass density, 313.15 K [kg/m3] | mass density, 323.15 K [kg/m3] | mass density, 333.15 K [kg/m3] | speed of sound, 298.15 K [m/s]
m1 = 0.0362 | 965.762 | 956.275 | 951.52 | 946.762 | 937.212 | 927.62 | 917.988 | 1460
m1 = 0.04897 | 968.496 | 959.009 | 954.258 | 949.505 | 939.972 | 930.338 | 920.756 | –
m1 = 0.0604 | 970.938 | 961.462 | 956.715 | 951.971 | 942.44 | 932.866 | 923.242 | 1461.7
m1 = 0.07815 | 974.714 | 965.248 | 960.507 | 955.758 | 946.236 | 936.666 | 927.06 | 1463.2
m1 = 0.106 | 980.752 | 971.295 | 966.549 | 961.812 | 952.315 | 942.78 | 933.198 | 1465.3
m1 = 0.139 | 987.892 | 978.445 | 973.718 | 968.984 | 959.5 | 949.979 | 940.416 | 1467.8
m1 = 0.1737 | 995.495 | 986.058 | 981.338 | 976.613 | 967.148 | 957.653 | 948.12 | 1470.3
m1 = 0.2084 | 1003.16 | 993.739 | 989.024 | 984.309 | 974.859 | 965.385 | 955.869 | 1473.2
m1 = 0.2431 | 1010.94 | 1001.53 | 996.825 | 992.116 | 982.686 | 973.233 | 963.75 | 1475.7
m1 = 0.2746 | 1018.01 | 1008.7 | 1003.95 | 999.2 | 989.83 | 980.454 | 970.858 | 1478.3
m1 = 0.3065 | 1025.38 | 1015.99 | 1011.3 | 1006.6 | 997.202 | 987.786 | 978.345 | 1480.8
m1 = 0.3377 | 1032.62 | 1023.24 | 1018.54 | 1013.85 | 1004.46 | 995.056 | 985.638 | 1483.8

[Mn+2].[O-][Cl+3]([O-])([O-])[O-].[O-][Cl+3]([O-])([O-])[O-] [manganese (II) perchlorate] + CN(C)C=O
Details | mass density, 283.15 K [kg/m3] | mass density, 293.15 K [kg/m3] | mass density, 298.15 K [kg/m3] | mass density, 303.15 K [kg/m3] | mass density, 313.15 K [kg/m3] | mass density, 323.15 K [kg/m3] | mass density, 333.15 K [kg/m3] | speed of sound, 298.15 K [m/s]
m1 = 0.04109 | 966.326 | 956.852 | 952.107 | 947.355 | 937.821 | 928.242 | 918.616 | 1460.8
m1 = 0.05823 | 969.773 | 960.312 | 955.574 | 950.83 | 941.313 | 931.759 | 922.147 | –
m1 = 0.08396 | 974.96 | 965.52 | 960.793 | 956.059 | 946.568 | 937.04 | 927.465 | 1464.6
m1 = 0.1024 | 978.695 | 969.265 | 964.546 | 959.822 | 950.346 | 940.834 | 931.273 | –
m1 = 0.1233 | 982.926 | 973.513 | 968.799 | 964.082 | 954.629 | 945.142 | 935.612 | 1468.2
m1 = 0.1616 | 990.785 | 981.396 | 976.698 | 971.997 | 962.575 | 953.124 | 943.633 | 1471.4
m1 = 0.2007 | 998.895 | 989.531 | 984.846 | 980.162 | 970.768 | 961.357 | 951.918 | 1475
m1 = 0.2395 | 1007.03 | 997.69 | 993.019 | 988.351 | 978.996 | 969.623 | 960.225 | 1478.3
m1 = 0.2793 | 1015.47 | 1006.16 | 1001.5 | 996.842 | 987.519 | 978.179 | 968.812 | 1481.9
m1 = 0.3166 | 1023.51 | 1014.22 | 1009.58 | 1004.94 | 995.645 | 986.342 | 977.019 | 1485.6
m1 = 0.3529 | 1031.38 | 1022.11 | 1017.48 | 1012.85 | 1003.59 | 994.313 | 985.025 | 1488.9
m1 = 0.3885 | 1039.21 | 1029.96 | 1025.35 | 1020.73 | 1011.5 | 1002.27 | 993.029 | 1492.5

— the NIST ThermoML archive (doi:10.1021/je049721u)
